{"source": "patent US8487131B2", "about": "(Sanford-Burnham Medical Research Institute, priority 2009, dated 2013)", "key": {"Bcl-XL [1]": {"biological_target": "T1, Bcl-XL (Homo sapiens, UniProt Q07817)", "T1 sequence (Q07817 whole entry)": "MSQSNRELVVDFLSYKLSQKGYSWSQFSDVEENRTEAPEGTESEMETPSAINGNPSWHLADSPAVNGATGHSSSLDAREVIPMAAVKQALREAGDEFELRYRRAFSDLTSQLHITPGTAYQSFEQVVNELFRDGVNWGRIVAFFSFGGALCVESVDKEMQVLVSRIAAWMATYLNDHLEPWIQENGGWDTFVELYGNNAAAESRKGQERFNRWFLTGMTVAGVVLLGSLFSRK", "test": "Isothermal Titration Calorimetry assay (ITC)", "type": "binding", "conditions": "Kd ratio versus 12-14"}, "[2]": {"test": "In vitro rat plasma stability", "type": "in vitro ADME", "from_the_text": "(§1) Next, we examined the pharmacological properties of the isomers as chirality could greatly affect such properties due to stereoselective metabolism. To test the pharmacological properties of diastereoisomers 11-14, we determined their in vitro rat plasma stability, rat microsomal stability, and cell membrane permeability (Table 4)."}, "[3]": {"conditions": "rat, 40 min", "from_the_text": "as §1"}, "[4]": {"test": "Cell membrane permeability (PAMPA, LogPe)", "type": "in vitro ADME", "conditions": "compared to 12-14", "from_the_text": "as §1"}, "[5]": {"tested_on": "wild type mouse embryonic fibroblast cells (MEF/WT)", "test": "Apoptosis, FITC-Annexin V/PI assay, MEF/WT", "type": "cell-based", "conditions": "30 μM", "experimental": "(§2) Wild-type MEF and DKO/MEF were seeded in 24-well plate at a seeding density of half a million per well (in 1 ml of DMEM medium supplemented by 10% FCS). Next day, compound was added to wild-type and DKO cells at final concentration of 0, 2.5, 5.0, 7.5, 10 and 30 μM. On the following day, floating cells were pooled with adherent cells harvested after brief incubation with 0.25% Trypsin/EDTA solution (Gibco/In-Vitrogen Inc.). Cells were centrifuged and supernatant was discarded, and cell pellet was re-suspended with 0.2 ml of Annexin-V binding buffer, followed by addition of 1 μl Annexin-FITC and 1 μl PI (propidium iodide). The percentage of viable cells was determined by a 3-color FACSort instrument and data analyzed by Flow-Jo program, scoring Annexin V-negative, PI-negative as viable cells."}, "[6]": {"tested_on": "Bax/Bak double knockout MEF cells (MEF/DKO)", "test": "Apoptosis, FITC-Annexin V/PI assay, MEF/DKO", "type": "cell-based, mouse", "conditions": "for toxicity in MEF/DKO cells: 30 μM, FITC-Annexin V/PI", "experimental": "as §2, with “Next day, compound was added to wild-type and DKO cells at final concentration of 0, 2.5, 5.0, 7.5, 10 and 30 μM.” left out"}, "[7]": {"tested_on": "Bcl-2 transgenic mice (B6Bcl2)", "test": "Bcl-2 transgenic mice, spleen weight", "type": "in vivo, mouse", "conditions": "for in vivo activity in Bcl-2 transgenic mice: single i.p. 42 mg/kg", "experimental": "Transgenic mice expressing Bcl-2 have been described as the B6 line.^48 The BCL-2 transgene represents a minigene version of a t(14;18) translocation in which the human BCL-2 gene is fused with the immunoglobulin heavy-chain (IgH) locus and associated IgH enhancer. The transgene was propagated on the Balb/c background.\nAfter 24 hours, B6Bcl2 mice were sacrificed by intraperitoneal injection of lethal dose of Avertin. Spleen was removed and weighed."}, "M2182 cells": {"tested_on": "M2182 cells", "test": "Prostate cancer xenograft in athymic nude mice", "type": "in vivo, mouse", "conditions": "for inhibitory effect of tumor size compared with the control group: all doses, i.p. every 2 days", "description": "Cells were then selected for 2 weeks in 200 μg/ml of hygromycin, and individual colonies were isolated, expanded, and maintained in 5 μg/m1 hygromycin. The overexpression of luciferase in these clones was confirmed by measuring luciferase activity.\nM2182-Luc cells (1×10^6) were injected s.c. in 100 μL of PBS in the left and right flanks of male athymic nude mice (NCR^nu/nu, 4 weeks old, 20 g body weight) as described previously.^40 After establishing visible tumors of ˜75-mm^3, requiring ˜5-6 days, compound dissolved in 500 μL of solvent (ethanol/Cremophor EL/saline=10:10:80) were injected intraperitoneally (i.p.). The injections were given every 2 days for a total of nine injections. […] A minimum of five animals was used per experimental condition. For in vivo imaging of tumors, the mice were anesthetized and injected i.p. with 150 mg/kg luciferin and light emitted from each tumor was determined using a Xenogen system with CCD camera with an integration time of 1 min. Luminescence measurements were made using Living Image software (version 2.50.1; Xenogen). At the end of the experiment, the animals were sacrificed, and the tumors were removed and photographed."}, "Bcl-XL [8]": {"biological_target": "T1, Bcl-XL", "test": "NMR binding assays (1D 1H-NMR, 2D [15N,1H]-TROSY), Bcl-XL", "conditions": "2D TROSY at ligand/protein ratio 1:1"}, "Mcl-1": {"biological_target": "Mcl-1 (Homo sapiens, UniProt Q07820)", "sequence (Q07820 whole entry)": "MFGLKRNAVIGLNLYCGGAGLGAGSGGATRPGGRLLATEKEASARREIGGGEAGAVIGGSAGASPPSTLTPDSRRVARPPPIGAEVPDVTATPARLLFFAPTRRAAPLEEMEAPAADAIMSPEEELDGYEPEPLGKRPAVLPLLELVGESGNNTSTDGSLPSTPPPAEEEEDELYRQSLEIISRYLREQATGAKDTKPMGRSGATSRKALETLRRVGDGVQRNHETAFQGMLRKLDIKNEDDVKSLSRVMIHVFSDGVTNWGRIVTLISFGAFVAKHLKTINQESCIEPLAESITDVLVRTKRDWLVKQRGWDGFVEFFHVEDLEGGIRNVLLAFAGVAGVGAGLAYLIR", "test": "2D [15N,1H]-TROSY NMR binding, Mcl-1", "conditions": "2D TROSY, ligand/protein ratio of 2:1"}, "[9]": {"test": "Chemical stability at different temperatures", "type": "physicochemical", "conditions": "compared to 12-14"}, "H460 cells": {"tested_on": "H460 cells", "test": "Cell viability, ATP-LITE assay, H460", "type": "cell-based, human", "conditions": "72 hours of treatment", "experimental": "The activity of the compounds against human cancer cell lines (PC3, H460, H1299) were assessed by using the ATP-LITE assay (PerkinElmer). All cells were seeded in either […] or RPMI1640 medium with 5 mM L-glutamine supplemented with 5% fetal bovine serum (Mediatech Inc.), penicillin and streptomycin (Omega). For maintenance, cells were cultured in 5% FBS. Cells plated into 96 well plates at varying initial densities depending on doubling time. […] Compounds were diluted to final concentrations with 0.1% DMSO. Prior to dispensing compounds onto cells, fresh 5% media was placed into wells. Administration of compounds occurred 24 hours after seeding into the fresh media. Cell viability was evaluated using ATP-LITE reagent (PerkinElmer) after 72 hours of treatment. Data were normalized to the DMSO control-treated cells using Prism version 5.01 (Graphpad Software)."}, "[10]": {"tested_on": "MDA-MB-231 breast cancer cells", "conditions": "reference 13; read-out: EC50 in killing MDA-MB-231 breast cancer cells; cited from earlier work"}, "BP3 cell line": {"tested_on": "BP3 cell line", "test": "Apoptosis, Annexin V-FITC and propidium iodide assay, BP3", "type": "cell-based, human", "description": "The apoptotic activity of the compounds against BP3 cells was assessed by staining with Annexin V- and propidium iodide (PI). BP3 cell line was cultured in RPMI 1640 medium (Mediatech Inc., Herndon, Va. 20171) containing 10% fetal bovine serum (Mediatech Inc., Herndon, Va. 20171) and Penicillin/Streptomycin (Mediatech Inc., Herndon, Va. 20171). […] The percentage of viable cells was determined by FITC-Annexin V- and propidium iodide (PI)-labeling, using an Apoptosis Detection kit (BioVision Inc.), and analyzing stained cells by flow cytometry (FACSort; Bectin-Dickinson, Inc.; Mountain View, Calif.). Cells that were annexin-V-negative and PI-negative were considered viable."}, "[11]": {"tested_on": "cancer cells that overexpress Mcl-1", "conditions": "references 32, 36; cited from earlier work"}}, "note": "Entries after “also recorded” stand apart in the source; their conditions may differ."}
{"compound": "Cc1cc2c(C(=O)NC[C@@H](C)c3ccccc3)c(O)c(O)cc2c(O)c1-c1c(C)cc2c(C(=O)NC[C@H](C)c3ccccc3)c(O)c(O)cc2c1O", "note": "(atropisomer, axis not shown) [Compound 11]", "values": [{"measurement": "times more potent than other isomers 12-14 in ITC assay", "setting": "Bcl-XL [1]", "value": "4-20 times"}, {"measurement": "Plasma stability (T = 1 h)", "setting": "[2]", "value": 41, "unit": "%"}, {"measurement": "microsomal stability", "setting": "[3]", "value": "relatively good microsomal stability"}, {"measurement": "cell membrane permeability", "setting": "[4]", "value": "superior cell membrane permeability"}, {"measurement": "wild type MEF cells killed", "setting": "[5]", "value": "~70", "unit": "%"}, {"measurement": "cytotoxicity against bax−/−bak−/− cells (summary statement)", "setting": "[6]", "value": "less cytotoxicity; also recorded: little cytotoxicity"}, {"measurement": "toxicity in MEF/DKO cells", "setting": "[6]", "value": "slight toxicity"}, {"measurement": "in vivo activity in Bcl-2 transgenic mice", "setting": "[7]", "value": "superior in vivo activity"}, {"measurement": "spleen weight reduction", "setting": "[7]; single i.p. injection at 42 mg/kg, 24 hours", "value": "more than 30%"}, {"measurement": "tumor growth inhibited to % of the tumor volume in the control group", "setting": "M2182 cells; 3 mg/kg i.p. every 2 days, nine injections", "value": "~60", "unit": "%"}, {"measurement": "inhibition of tumor growth in both flanks", "setting": "M2182 cells; 5 mg/kg i.p. every 2 days, nine injections", "value": "near complete inhibition of tumor growth"}, {"measurement": "inhibitory effect of tumor size compared with the control group", "setting": "M2182 cells", "value": "marked inhibitory effect of tumor size"}, {"measurement": "NMR binding to Bcl-XL", "setting": "Bcl-XL [8]", "value": "larger chemical shift perturbations; also recorded: low to submicromolar binding affinity"}, {"measurement": "NMR binding to Mcl-1", "setting": "Mcl-1", "value": "significant binding"}, {"measurement": "chemical stability", "setting": "[9]", "value": "better chemical stability"}]}
{"compound": "Cc1cc2c(C(=O)NCC(C)c3ccccc3)c(O)c(O)cc2c(O)c1-c1c(C)cc2c(C(=O)NCC(C)c3ccccc3)c(O)c(O)cc2c1O", "note": "(racemic) [Compound 4]", "values": [{"measurement": "cytotoxicity in MEF/DKO cells compared to isomer 11", "setting": "[6]; 3-30 μM", "value": "higher cytotoxicity in MEF/DKO cells"}, {"measurement": "inhibitory effect of tumor size", "setting": "M2182 cells; 10 mg/kg i.p. every 2 days, nine injections", "value": "weak inhibitory effect of tumor size"}, {"measurement": "inhibition of tumor growth in both flanks", "setting": "M2182 cells; 25 mg/kg i.p. every 2 days, nine injections", "value": "near complete inhibition of tumor growth"}, {"measurement": "inhibitory effect of tumor size compared with the control group", "setting": "M2182 cells", "value": "marked inhibitory effect of tumor size"}]}
{"compound": "Cc1cc2c(C(=O)NCC(C)c3ccccc3)c(O)c(O)cc2c(O)c1-c1c(C)cc2c(C(=O)NCC(C)c3ccccc3)c(O)c(O)cc2c1O", "note": "(single isomer, unassigned) [Compound 12]", "values": [{"measurement": "Plasma stability (T = 1 h)", "setting": "[2]", "value": 28, "unit": "%"}, {"measurement": "plasma stability", "setting": "[2]; compared to other diastereoisomers", "value": "decreased plasma and microsomal stability"}, {"measurement": "microsomal stability", "setting": "[3]", "value": "decreased plasma and microsomal stability"}, {"measurement": "in vivo activity in Bcl-2 transgenic mice", "setting": "[7]", "value": "weak in vivo activity"}]}
{"compound": "Cc1cc2c(C(=O)NCC(C)c3ccccc3)c(O)c(O)cc2c(O)c1-c1c(C)cc2c(C(=O)NCC(C)c3ccccc3)c(O)c(O)cc2c1O", "note": "(single isomer, unassigned) [Compound 13]", "values": [{"measurement": "Plasma stability (T = 1 h)", "setting": "[2]", "value": 42, "unit": "%"}]}
{"compound": "Cc1cc2c(C(=O)NCC(C)c3ccccc3)c(O)c(O)cc2c(O)c1-c1c(C)cc2c(C(=O)NCC(C)c3ccccc3)c(O)c(O)cc2c1O", "note": "(single isomer, unassigned) [Compound 14]", "values": [{"measurement": "EC50", "setting": "H460 cells", "value": "0.8 ± 0.09", "unit": "µM"}, {"measurement": "Plasma stability (T = 1 h)", "setting": "[2]", "value": 41, "unit": "%"}, {"measurement": "toxicity in MEF/DKO cells", "setting": "[6]", "value": "almost equally effective in killing both MEF/WT and MEF/DKO"}]}
{"compound": "Cc1cc2c(C(C)C)c(O)c(O)c(C=O)c2c(O)c1-c1c(C)cc2c(C(C)C)c(O)c(O)c(C=O)c2c1O", "note": "[(+) 1]", "values": [{"measurement": "EC50", "setting": "[10]", "value": "~10", "unit": "µM"}]}
{"compound": "CN(C)CC[C@H](CSc1ccccc1)Nc1ccc(S(=O)(=O)NC(=O)c2ccc(N3CCN(Cc4ccccc4-c4ccc(Cl)cc4)CC3)cc2)cc1[N+](=O)[O-]", "note": "[ABT-737]", "values": [{"measurement": "apoptosis induction / cytotoxic activity against BP3 cell line", "setting": "BP3 cell line", "value": "no cytotoxic activity"}, {"measurement": "effectiveness against cancer cells that overexpress Mcl-1", "setting": "[11]", "value": "not effective"}]}
